IC50 and Activity data for three compounds are collected here from ChEMBL document CHEMBL5678818, “Discovery of potent SOS1 inhibitors that block RAS activation via disruption of the RAS-SOS1 interaction” (Proc Natl Acad Sci U S A, 2019).

Bounds are passed on as bounds.

One assay concerns the target GTPase KRas/RAF1 (Homo sapiens, UniProt P01116+P04049). Kind of assay: Inhibition of N-terminal His10-tagged wild-type recombinant human KRAS (1 to 169 residues) expressed in Escherichia coli/N-terminal GST-tagged recombinant human CRAF RBD (51 to 131 residues) expressed in Escherichia coli protein-protein interaction preincubated for 30 mins with KRAS followed by CRAF RBD addition measured after 60 mins in presence of anti-6His-XL665/GTP by HTRF analysis. A general note: In TR-FRET formats the signal depends on donor and acceptor labels being close together.

Assay [1] addresses Serine/threonine-protein kinase 10 (Homo sapiens) (UniProt O94804). Kind of assay: Inhibition of LOK (unknown origin) assessed as residual activity at 1000 nM by KINOMEscan analysis relative to control.
For assay [2], the target named is Proto-oncogene tyrosine-protein kinase Src (Homo sapiens) (UniProt P12931). Kind of assay: Inhibition of SRC (unknown origin) assessed as residual activity at 1000 nM by KINOMEscan analysis relative to control.
Assay [3] concerns the target T1, Serine/threonine-protein kinase Nek5 (Homo sapiens) (UniProt Q6P3R8).
T1 sequence (whole entry): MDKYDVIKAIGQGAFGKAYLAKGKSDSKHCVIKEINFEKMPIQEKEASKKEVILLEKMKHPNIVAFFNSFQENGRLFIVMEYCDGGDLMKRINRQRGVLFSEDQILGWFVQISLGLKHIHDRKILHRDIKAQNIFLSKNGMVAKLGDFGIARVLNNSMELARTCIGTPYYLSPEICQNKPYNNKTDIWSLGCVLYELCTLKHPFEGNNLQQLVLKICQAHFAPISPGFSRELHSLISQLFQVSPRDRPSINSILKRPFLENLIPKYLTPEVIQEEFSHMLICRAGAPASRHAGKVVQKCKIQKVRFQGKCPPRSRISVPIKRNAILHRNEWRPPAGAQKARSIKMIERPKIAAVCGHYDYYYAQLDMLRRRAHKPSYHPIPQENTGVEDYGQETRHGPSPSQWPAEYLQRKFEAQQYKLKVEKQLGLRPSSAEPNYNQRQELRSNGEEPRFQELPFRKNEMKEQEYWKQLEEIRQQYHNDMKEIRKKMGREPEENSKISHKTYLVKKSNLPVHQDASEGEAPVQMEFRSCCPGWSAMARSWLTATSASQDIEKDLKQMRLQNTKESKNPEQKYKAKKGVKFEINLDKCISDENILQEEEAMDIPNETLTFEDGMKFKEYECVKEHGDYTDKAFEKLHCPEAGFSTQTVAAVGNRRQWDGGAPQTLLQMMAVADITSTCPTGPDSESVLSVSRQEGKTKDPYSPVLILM
Kind of assay: Inhibition of NEK5 (unknown origin) assessed as residual activity at 1000 nM by KINOMEscan analysis relative to control.

Assay [4] has as its target T2, Serine/threonine-protein kinase Sgk1 (Homo sapiens) (UniProt O00141).
T2 sequence (whole entry): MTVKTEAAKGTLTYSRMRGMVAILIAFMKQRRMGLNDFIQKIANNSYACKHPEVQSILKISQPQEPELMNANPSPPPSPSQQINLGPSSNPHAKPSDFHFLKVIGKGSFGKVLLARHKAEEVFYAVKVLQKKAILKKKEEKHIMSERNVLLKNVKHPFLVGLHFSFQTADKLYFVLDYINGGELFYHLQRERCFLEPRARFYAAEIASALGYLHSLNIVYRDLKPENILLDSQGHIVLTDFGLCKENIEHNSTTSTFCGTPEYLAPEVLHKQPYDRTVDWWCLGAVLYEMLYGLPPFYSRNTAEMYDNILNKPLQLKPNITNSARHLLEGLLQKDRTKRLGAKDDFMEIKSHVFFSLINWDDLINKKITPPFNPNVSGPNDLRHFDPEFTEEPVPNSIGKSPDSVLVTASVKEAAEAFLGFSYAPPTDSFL
Kind of assay: Inhibition of SGK (unknown origin) assessed as residual activity at 1000 nM by KINOMEscan analysis relative to control.

The subject of assay [5] is Epidermal growth factor receptor (Homo sapiens), P00533 [G719S]. Kind of assay: Inhibition of EGFR G719S mutant (unknown origin) assessed as residual activity at 1000 nM by KINOMEscan analysis relative to control.
Assay [6] addresses T3, Serine/threonine-protein kinase TAO2 (Homo sapiens) (UniProt Q9UL54).
T3 sequence (whole entry): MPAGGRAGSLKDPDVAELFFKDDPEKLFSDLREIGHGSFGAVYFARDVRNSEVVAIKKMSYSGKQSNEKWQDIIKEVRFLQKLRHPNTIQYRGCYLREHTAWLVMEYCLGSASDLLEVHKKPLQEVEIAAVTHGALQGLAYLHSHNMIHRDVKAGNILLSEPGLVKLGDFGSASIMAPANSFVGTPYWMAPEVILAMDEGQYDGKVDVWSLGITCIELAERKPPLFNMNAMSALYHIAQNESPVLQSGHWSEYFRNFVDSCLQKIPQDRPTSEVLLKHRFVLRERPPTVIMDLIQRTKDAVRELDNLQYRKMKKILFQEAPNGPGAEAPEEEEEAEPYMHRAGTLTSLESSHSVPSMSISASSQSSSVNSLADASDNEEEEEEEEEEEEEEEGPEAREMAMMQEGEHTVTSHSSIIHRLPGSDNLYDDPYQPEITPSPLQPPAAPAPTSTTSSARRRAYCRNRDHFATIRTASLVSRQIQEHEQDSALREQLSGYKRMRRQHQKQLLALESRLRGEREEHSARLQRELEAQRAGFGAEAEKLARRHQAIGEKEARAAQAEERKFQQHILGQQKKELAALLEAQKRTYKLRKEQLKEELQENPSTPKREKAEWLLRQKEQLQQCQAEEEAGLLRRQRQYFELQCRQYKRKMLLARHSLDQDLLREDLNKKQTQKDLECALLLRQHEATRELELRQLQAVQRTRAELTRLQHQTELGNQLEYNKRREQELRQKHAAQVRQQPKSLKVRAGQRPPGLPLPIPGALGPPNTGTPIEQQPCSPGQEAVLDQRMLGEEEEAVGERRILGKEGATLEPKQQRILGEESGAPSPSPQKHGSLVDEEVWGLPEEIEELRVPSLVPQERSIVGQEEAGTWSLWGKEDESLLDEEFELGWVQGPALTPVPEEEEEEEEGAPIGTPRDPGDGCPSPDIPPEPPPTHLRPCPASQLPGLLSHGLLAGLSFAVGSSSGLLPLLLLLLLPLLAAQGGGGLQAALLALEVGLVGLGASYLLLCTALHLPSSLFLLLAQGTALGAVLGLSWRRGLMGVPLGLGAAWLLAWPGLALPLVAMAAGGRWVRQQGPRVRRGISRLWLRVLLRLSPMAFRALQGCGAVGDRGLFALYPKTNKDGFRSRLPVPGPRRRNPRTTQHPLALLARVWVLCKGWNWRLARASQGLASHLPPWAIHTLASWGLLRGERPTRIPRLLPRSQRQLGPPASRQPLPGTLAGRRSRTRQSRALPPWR
Kind of assay: Inhibition of TAOK2 (unknown origin) assessed as residual activity at 1000 nM by KINOMEscan analysis relative to control.

The target in assay [7] is RAC-gamma serine/threonine-protein kinase (Homo sapiens) (UniProt Q9Y243). Kind of assay: Inhibition of AKT3 (unknown origin) assessed as residual activity at 1000 nM by KINOMEscan analysis relative to control.

What is called IC50 is the point on the concentration scale where inhibition reaches its midpoint. Consider `COc1cc2nc(C)nc(NC(C)c3ccc(-c4cnc5n4CCC5)s3)c2cc1OC` (stereo unspecified), for which the IC50 at GTPase KRas/RAF1 was above 20 µM.
In the case of `COc1cc2ncnc(N[C@H](C)c3cccc4ccccc34)c2cc1OC`, the Activity in assay [1] turned out to be 44%; in assay [2] it was 96%; in assay [3], 85%; in assay [4], 11%; in assay [5], 1.2%; in assay [6], 90%. Moreover, the Activity in assay [7] was found to be 100%. In addition, the IC50 at GTPase KRas/RAF1 is above 20 µM.
Regarding `COc1cc2nc(C)nc(N[C@H](C)c3cccc(-c4cn[nH]c4)c3)c2cc1OC`, the Activity in assay [1] turned out to be 56%; in assay [2], 97%; in assay [3], 90%; in assay [4], 74%; in assay [5] it was 76%; in assay [6], 78%. Moreover, in assay [7], the Activity came to 84%.
